In brackets after ≈: the same amount, converted by molar mass.
Tests used:
[1] = C.A. 93 38279f; cited from earlier work
[2] = test system: Strept. faecalis SS 19; type: cell-based; details: Brain Heart Infusion, estolate and RV11-RV15 previously hydrolized, unit assumed
[3] = test system: E. coli SS 04; type: cell-based; details: Brain Heart Infusion, estolate and RV11-RV15 previously hydrolized, unit assumed
[4] = test system: B. subtilis SS 127; type: cell-based; details: Brain Heart Infusion, estolate and RV11-RV15 previously hydrolized, unit assumed
[5] = test system: E. coli SS 05; type: cell-based; details: Brain Heart Infusion, estolate and RV11-RV15 previously hydrolized, unit assumed
[6] = test system: Staph. albus SS 04; type: cell-based; details: Brain Heart Infusion, estolate and RV11-RV15 previously hydrolized, unit assumed
[7] = test system: D. pneumoniae SS 23; type: cell-based; details: Brain Heart Infusion, estolate and RV11-RV15 previously hydrolized, unit assumed
[8] = Histological examination of bronchi after SO2 inhalation; type: in vivo, Sprague Dawley male rats; details: oral, 500 mg/kg
[9] = test system: S. lutea ATCC 9341; type: cell-based; details: Brain Heart Infusion, estolate and RV11-RV15 previously hydrolized, unit assumed
[10] = test system: Cl. tetani SS 17; type: cell-based; details: Brain Heart Infusion, estolate and RV11-RV15 previously hydrolized, unit assumed
[11] = test system: B. subtilis ATCC 6633; type: cell-based; details: Brain Heart Infusion, estolate and RV11-RV15 previously hydrolized, unit assumed
[12] = test system: Br. melitensis SS 19; type: cell-based; details: unit assumed
[13] = test system: Pr. vulgaris SS 10; type: cell-based; details: Brain Heart Infusion, estolate and RV11-RV15 previously hydrolized, unit assumed
[14] = test system: E. coli SS 07; type: cell-based; details: Brain Heart Infusion, estolate and RV11-RV15 previously hydrolized, unit assumed
[15] = Hematic levels in the healthy volunteer; type: in vivo, healthy volunteers; details: 500 mg of erythromycin, average; for Hematic levels in the healthy volunteer: oral
From the text: For the dosing, the microbiological method using a B. subtilis strain was adopted.

[16] = test system: E. cloacae SS 07; type: cell-based; details: Brain Heart Infusion, estolate and RV11-RV15 previously hydrolized, unit assumed
[17] = test system: B. cereus ATCC 11778; type: cell-based; details: Brain Heart Infusion, estolate and RV11-RV15 previously hydrolized, unit assumed
[18] = test system: C. albicans SS 04; type: cell-based; details: Brain Heart Infusion, estolate and RV11-RV15 previously hydrolized, unit assumed
[19] = test system: Kl. aerogenes SS 71; type: cell-based; details: Brain Heart Infusion, estolate and RV11-RV15 previously hydrolized, unit assumed
[20] = test system: S. infantis SS 08; type: cell-based; details: Brain Heart Infusion, estolate and RV11-RV15 previously hydrolized, unit assumed
[21] = test system: Citrobacter SS 09; type: cell-based; details: Brain Heart Infusion, estolate and RV11-RV15 previously hydrolized, unit assumed
[22] = test system: N. meningitidis SS 04; type: cell-based; details: Brain Heart Infusion, estolate and RV11-RV15 previously hydrolized, unit assumed
[23] = test system: B. anthranis SS 09; type: cell-based; details: B. anthranis SS 09 (14 bis); Brain Heart Infusion; estolate and RV11-RV15 previously hydrolized; unit assumed
[24] = test system: Strept. haemolyticus SS 18; type: cell-based; details: Brain Heart Infusion, estolate and RV11-RV15 previously hydrolized, unit assumed
[25] = test system: H. tubercolosis SS 03; type: cell-based; details: Brain Heart Infusion, estolate and RV11-RV15 previously hydrolized, unit assumed
From the text: (§1) In the following table I the MIC/ml values are indicated corresponding to the lowest concentration capable of inducing a complete inhibition of the bacterial development.

[26] = test system: Kl. pneumoniae SS 04; type: cell-based; details: Brain Heart Infusion, estolate and RV11-RV15 previously hydrolized, unit assumed
From the text: as §1

[27] = test system: Staph. aureus SS 07; experiment: Experimental infection induced by Staph. aureus SS 07; type: in vivo, Swiss white mice; details: Staphylococcus aureus, SS07, in Mus musculus, po, 168 h, os; Staph. aureus SS 07; mg/kg of erythromycin; survival after 7 days; read-out: ED50 (reliability limits)
Method: (§2) Swiss white mice of 20 g body weight were used, infected by parenteral administration of lethal amounts of pathogenic […] of Staph. aureus SS 07 and D. pneumoniae SS 23.
(§3) The antibiotics were administered at the time of injecting the infecting germ and 6 and 24 hours later. On the basis of the survival after 7 days, the ED50 values were determined, as reported in the following table II and III, wherein the reliability limits are indicated in brackets.

[28] = test system: C. diphtheriae SS 19; type: cell-based; details: Brain Heart Infusion, estolate and RV11-RV15 previously hydrolized, unit assumed
[29] = test system: Ps. aeruginosa SS 10; type: cell-based; details: Brain Heart Infusion, estolate and RV11-RV15 previously hydrolized, unit assumed
[30] = in vivo; details: rat, po, 100 mg/kg, Hematic levels in the rat
[31] = test system: Staph. aureus SS 08; type: cell-based; details: Brain Heart Infusion, estolate and RV11-RV15 previously hydrolized, unit assumed
[32] = test system: Sr. marcescens SS 03; type: cell-based; details: Brain Heart Infusion, estolate and RV11-RV15 previously hydrolized, unit assumed
[33] = Mucolytic activity: obstruction of the bronchial tract after SO2 inhalation; type: in vivo, Sprague Dawley male rats; details: oral, 500 mg/kg; SO2, 15 days
[34] = test system: B. anthranis SS 08; type: cell-based; details: Brain Heart Infusion, estolate and RV11-RV15 previously hydrolized, unit assumed
[35] = in vivo, po, 100 mg/kg, 6 h
[36] = test system: Citrobacter SS 05; type: cell-based; details: Brain Heart Infusion, estolate and RV11-RV15 previously hydrolized, unit assumed
[37] = test system: H. influentiae SS 02; type: cell-based; details: Brain Heart Infusion, estolate and RV11-RV15 previously hydrolized, unit assumed
[38] = test system: Staph. aureus SS 09; type: cell-based; details: Brain Heart Infusion, estolate and RV11-RV15 previously hydrolized, unit assumed
[39] = test system: N. gonorreae SS 27; type: cell-based; details: Brain Heart Infusion, estolate and RV11-RV15 previously hydrolized, unit assumed
[40] = test system: D. pneumoniae SS 23; experiment: Experimental infection induced by D. pneumoniae SS 23; type: in vivo, Swiss white mice; details: Streptococcus pneumoniae, SS23, in Mus musculus, po, 168 h, os; D. pneumoniae SS 23; mg/kg of erythromycin; survival after 7 days; read-out: ED50 (reliability limits)
Method: as §2, §3

[41] = test system: Br. abortus SS 7; type: cell-based; details: Brain Heart Infusion, estolate and RV11-RV15 previously hydrolized, unit assumed
[42] = test system: E. coli SS 06; type: cell-based; details: Brain Heart Infusion, estolate and RV11-RV15 previously hydrolized, unit assumed
[43] = test system: E. aerogenes SS 011; type: cell-based; details: Brain Heart Infusion, estolate and RV11-RV15 previously hydrolized, unit assumed
[44] = test system: S. heidelberg SS 18; type: cell-based; details: Brain Heart Infusion, estolate and RV11-RV15 previously hydrolized, unit assumed
[45] = test system: Staph. albus SS 03; type: cell-based; details: Brain Heart Infusion, estolate and RV11-RV15 previously hydrolized, unit assumed
[46] = test system: H. pertussis SS 03; type: cell-based; details: Brain Heart Infusion, estolate and RV11-RV15 previously hydrolized, unit assumed
[47] = test system: Strept. haemolyticus SS 17; type: cell-based; details: Brain Heart Infusion, estolate and RV11-RV15 previously hydrolized, unit assumed
[48] = test system: Pr. mirabilis SS 09; type: cell-based; details: Brain Heart Infusion, estolate and RV11-RV15 previously hydrolized, unit assumed

## CC(=O)N[C@@H](CS)C(=O)O [acetylcysteine]
[1]
  action with respect to the activity of antibiotics: inhibiting action with respect to the activity of antibiotics

## CCC(=O)O[C@H]1[C@H](O[C@@H]2[C@@H](C)[C@H](O[C@H]3C[C@@](C)(OC)[C@@H](O)[C@H](C)O3)[C@@H](C)C(=O)O[C@H](CC)[C@@](C)(O)[C@H](O)[C@@H](C)C(=O)[C@H](C)C[C@@]2(C)O)O[C@H](C)C[C@@H]1N(C)C [erythromycin estolate, reference compound]
[2]
  MIC: 0.1 µg/mL (≈ 0.127 µM)
[3]
  MIC: 100 µg/mL (≈ 127 µM)
[4]
  MIC: 0.025 µg/mL (≈ 0.0316 µM)
[5]
  MIC: 100 µg/mL (≈ 127 µM)
[6]
  MIC: 0.05 µg/mL (≈ 0.0633 µM)
[7]
  MIC: 0.05 µg/mL (≈ 0.0633 µM)
[8]
  bronchial epithelium reaction: the bronchial epithelium reacts through a proliferation of cells, mainly cup-shaped cells
[8]; obstructed
  histological appearance of obstructed bronchial tract: the bronchial obstruction is formed by abundant mucus admixed with fibrin
[9]
  MIC: 0.01 µg/mL (≈ 0.0127 µM)
[10]
  MIC: 0.2 µg/mL (≈ 0.253 µM)
[11]
  MIC: 0.01 µg/mL (≈ 0.0127 µM)
[12]
  MIC: 3 µg/mL (≈ 3.8 µM)
[13]
  MIC: > 200 µg/mL
[14]
  MIC: 50 µg/mL (≈ 63.3 µM)
[15]; 0.30 hours, 18 min
  Hematic levels in the healthy volunteer: 0.27 µg/mL
[15]; 1 hour, 60 min
  Hematic levels in the healthy volunteer: 0.58 µg/mL
[15]; human, blood, po, 500 mg, 2 hours
  concentration at 2 h: 2100 ng/mL
[15]; human, blood, po, 500 mg, 3 hours
  concentration at 3 h: 1410 ng/mL
[15]; human, blood, po, 500 mg, 4 hours
  concentration at 4 h: 1310 ng/mL
[16]
  MIC: > 200 µg/mL
[17]
  MIC: 0.8 µg/mL (≈ 1.01 µM)
[18]
  MIC: 200 µg/mL (≈ 253 µM)
[19]
  MIC: 100 µg/mL (≈ 127 µM)
[20]
  MIC: 100 µg/mL (≈ 127 µM)
[21]
  MIC: > 200 µg/mL
[22]
  MIC: 1.5 µg/mL (≈ 1.9 µM)
[23]
  MIC: 0.4 µg/mL (≈ 0.506 µM)
[24]
  MIC: 3 µg/mL (≈ 3.8 µM)
[25]
  MIC: 50 µg/mL (≈ 63.3 µM)
[26]
  MIC: 100 µg/mL (≈ 127 µM)
[27]
  ED50: 2.2 mg/kg
[28]
  MIC: 0.025 µg/mL (≈ 0.0316 µM)
[29]
  MIC: 100 µg/mL (≈ 127 µM)
[30]
  concentration at 0.3 h: 680 ng/mL
  concentration at 1 h: 1740 ng/mL
  concentration at 2 h: 2490 ng/mL
  concentration at 3 h: 1490 ng/mL
  concentration at 4 h: 610 ng/mL
  concentration at 5 h: 370 ng/mL
[31]
  MIC: 0.025 µg/mL (≈ 0.0316 µM)
[32]
  MIC: > 200 µg/mL
[33]
  Partial obstruction (% incidence): 20%
  Total obstruction, compact plug (% incidence): 46.66%
  Total obstruction, nodular mass (% incidence): 20%
  Total obstruction, pimply mass (% incidence): 6.66%
[34]
  MIC: 0.4 µg/mL (≈ 0.506 µM)
[35]
  Hematic levels in the rat: 0.04 µg/mL
[36]
  MIC: > 200 µg/mL
[37]
  MIC: 1.5 µg/mL (≈ 1.9 µM)
[38]
  MIC: 0.05 µg/mL (≈ 0.0633 µM)
[39]
  MIC: 0.8 µg/mL (≈ 1.01 µM)
[40]
  ED50: 128 mg/kg
[41]
  MIC: 6 µg/mL (≈ 7.59 µM)
[42]
  MIC: 50 µg/mL (≈ 63.3 µM)
[43]
  MIC: 50 µg/mL (≈ 63.3 µM)
[44]
  MIC: 100 µg/mL (≈ 127 µM)
[45]
  MIC: 0.05 µg/mL (≈ 0.0633 µM)
[46]
  MIC: 0.4 µg/mL (≈ 0.506 µM)
[47]
  MIC: 3 µg/mL (≈ 3.8 µM)
[48]
  MIC: > 200 µg/mL

Source: US4476120A, “Thiolic derivatives of erythromycin having therapeutic activity, and pharmaceutical compositions containing them” (Sigma Tau Indistrie Farmaceutiche Riunites, p.A, priority 1982, dated 1984)
